≈ marks a conversion by molar mass, not a printed value.
Tests used:
[1] = cited from earlier work
[2] = test system: dopamine release in the ventral striatum; conditions: animal data, cited from earlier work
[3] = Solubility in organic solvents and aqueous media; assay type: physicochemical
[4] = test system: DA release in striatum; assay: [11C]-raclopride PET binding potential; assay type: in vivo, humans
Procedure: The Positron Emission Tomography (PET) scans were performed at the PET Center of Johns Hopkins University at Johns Hopkins Hospital, Baltimore, Md. During the PET scans three plasma samples of RPR 102681 were obtained from each subject under different dosing to measure RPR 102681 plasma concentration.
Each subject was also studied using Magnetic Resonance Imaging (MRI). Each subject received an individual thermoplastic mask molded to their face to allow for repositioning and stabilizing of the head during the MRI procedure and PET scan later. Marks, which localized the anatomical structures of interest, were placed on the mask following the MRI scan. In particular, each subject received an MRI with a sagittal scout view to localize the anterior commissure-posterior commissure (AC-PC) line to allow standardized positioning across the subjects based on the anatomical landmarks. […]
[^11C]-raclopride PET scans were preformed on days 6, 13, 20 and 27. […] To measure the specific binding of tracer, binding potential (BP) images were generated by a simplified reference model with a linear regression algorithm (Using a reference tissue model with spatial constraint to quantify [^11C] Pittsburgh compound B PET for early diagnosis of Alzheimer's disease, Yun Zhou, Susan M. Resnick, Weiguo Ye, Hong Fan, Daniel P. Holt, William E. Klunk, Chester A. Mathis, Robert Dannals, and Dean F. Wonga, NeuroImage 36 (2007) 298-312). […]
Subjects received PET scans with [^11C]-raclopride at baseline after uneventful completion of screening cocaine infusions and assignment to RPR 102681 or placebo treatment and on the fifth day of each RPR 102681 dose level (days 13, 20 and 27). After six subjects had completed all four PET scans these subjects' PET scan data was analyzed without breaking the blind to determine whether or not the PET scans should have been administered to any additional subjects. […]

[5] = Cocaine and BE pharmacokinetics under RPR 102681 treatment; conditions: post-treatment RPR 102681 doses vs baseline
[6] = NIH study: treatment of cocaine abuse; conditions: humans
[7] = Phase I cocaine interaction study: heart rate and blood pressure

Which results are given for `CC(C(=O)O)c1cccc(NC(=O)NCC(=O)N2C(C(=O)OC(C)(C)C)CSC2c2ccccc2F)c1` [RPR 102681, (2S)-2-{3-[3-({[(2R,4R)-4-tert-Butoxycarbonyl-2-(2-fluorophenyl)]-3-thiazolidinyl}carbonylmethyl)ureido]phenyl}propionic acid]?
diarrhea ([1]; first clinical study): 2 occurrences; euphoria ([1]; first clinical study): 2 occurrences; headaches ([1]; first clinical study): 3 occurrences; postural hypotension ([1]; first clinical study): 6 occurrences; somnolence ([1]; first clinical study): 3 occurrences; flatulence ([1]; second clinical study): 4 occurrences; headache ([1]; second clinical study): 1 occurrences; pharyngitis ([1]; second clinical study): 4 occurrences; serious adverse events ([1]; two clinical studies in France and two NIH studies): no serious adverse events; dopamine release in the ventral striatum (microdialysis) ([2]; intraperitoneal administration): stimulates dopamine release; release of dopamine compared to baseline values ([2]; intraperitoneal, highest dose tested 20 mg/Kg): almost tripled; solubility ([3]; acetone, organic solvent or mixture): 250 mg/mL (≈ 470 mM); solubility ([3]; aqueous media, aqueous buffer, pH less than 6): < 1 mg/mL; solubility ([3]; diethyl ether, organic solvent or mixture): 100 mg/mL (≈ 188 mM); solubility ([3]; dimethylformamide, organic solvent or mixture, dimenthylformamide): 1000 mg/mL (≈ 1880 mM); solubility ([3]; ethanol, organic solvent or mixture): 1000 mg/mL (≈ 1880 mM); solubility ([3]; ethyl acetate, organic solvent or mixture): 400 mg/mL (≈ 752 mM); solubility ([3]; methylene chloride, organic solvent or mixture): 500 mg/mL (≈ 941 mM); solubility ([3]; sodium phosphate, pH 7.4, aqueous buffer): 20 mg/mL (≈ 37.6 mM); solubility ([3]; toluene, organic solvent or mixture): 100 mg/mL (≈ 188 mM); solubility ([3]; water): 0.1 mg/mL (≈ 0.188 mM); change in [11C]-raclopride binding potential (BP) ([4]; Dosing Schedule A, caudate nucleus, putamen or ventral striatum): no statistically significant change; change in [11C]-raclopride binding potential (BP) ([4]; Dosing Schedule B, dose 60-90 minutes prior to PET scan, caudate nucleus and ventral striatum, P<0.001): significantly increased BP; dopamine release inferred from raclopride binding potential ([4]; humans, PET brain imaging): inhibited dopamine release; cocaine and BE pharmacokinetic parameters, difference from baseline [5]: No statistically significant differences; efficacy in treating cocaine abuse [6]: ineffective; elevation of DBP after cocaine ([7]; RPR 800 mg, cocaine 20 mg i.v., P-value=0.093): reduces; elevation of HR after cocaine ([7]; RPR 800 mg, cocaine 40 mg i.v., P-value=0.009): reduces the elevation of HR; elevation of SBP after cocaine ([7]; RPR 102681 200 mg, cocaine 20 mg i.v., P-value=0.031): increased the elevation of SBP; SBP increase in response to cocaine vs placebo group ([7]; cocaine 20 mg, GEE model adjusted for baseline, P-value=0.0412): significantly greater SBP increase; maximum HR/SBP/DBP changes across RPR 102681 dose conditions ([7]; pair-wise comparisons within RPR 102681 group, in general): does not significantly change HR/SBP/DBP; HR/SBP/DBP, RPR 102681 vs placebo groups ([7]; prior to infusions, post saline or post cocaine infusions, any day): no statistical difference
